Key:
[1] = biological target: T1, E3 ubiquitin-protein ligase UHRF1 (Homo sapiens, UniProt Q96T88); assay: Binding affinity to 6His-tagged and human UHRF1 tandem TUDOR domain (126 to 285 residues) expressed in Escherichia coli BL21(DE3)-T1R by ITC method
T1 sequence (Q96T88 whole entry): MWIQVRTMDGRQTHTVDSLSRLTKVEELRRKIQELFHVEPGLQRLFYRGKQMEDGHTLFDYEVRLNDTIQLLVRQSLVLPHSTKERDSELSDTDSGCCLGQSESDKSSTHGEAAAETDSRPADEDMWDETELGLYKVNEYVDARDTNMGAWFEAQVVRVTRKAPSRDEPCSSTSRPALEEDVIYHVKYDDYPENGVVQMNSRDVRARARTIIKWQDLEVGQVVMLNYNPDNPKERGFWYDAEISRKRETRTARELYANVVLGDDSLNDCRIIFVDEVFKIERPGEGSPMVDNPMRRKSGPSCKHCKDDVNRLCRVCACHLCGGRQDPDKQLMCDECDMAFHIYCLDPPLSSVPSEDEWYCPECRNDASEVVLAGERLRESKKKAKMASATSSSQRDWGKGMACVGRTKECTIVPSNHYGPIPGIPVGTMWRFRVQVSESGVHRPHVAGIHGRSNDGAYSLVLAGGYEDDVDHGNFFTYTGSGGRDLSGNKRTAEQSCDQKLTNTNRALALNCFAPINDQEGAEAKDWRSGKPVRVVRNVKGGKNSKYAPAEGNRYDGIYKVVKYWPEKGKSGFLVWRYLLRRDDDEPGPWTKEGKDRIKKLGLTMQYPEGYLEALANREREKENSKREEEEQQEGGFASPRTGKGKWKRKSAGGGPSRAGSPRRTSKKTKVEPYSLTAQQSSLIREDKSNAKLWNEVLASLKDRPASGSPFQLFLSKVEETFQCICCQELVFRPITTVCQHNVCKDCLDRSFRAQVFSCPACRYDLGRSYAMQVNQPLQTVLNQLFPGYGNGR

[2] = biological target: T2, Lysine-specific demethylase 4C (Homo sapiens, UniProt Q9H3R0); assay: Binding affinity to 6His-tagged and human KDM4C tandem TUDOR domain (874 to 990 residues) expressed in Escherichia coli BL21(DE3)-T1R by ITC method
T2 sequence (Q9H3R0 whole entry): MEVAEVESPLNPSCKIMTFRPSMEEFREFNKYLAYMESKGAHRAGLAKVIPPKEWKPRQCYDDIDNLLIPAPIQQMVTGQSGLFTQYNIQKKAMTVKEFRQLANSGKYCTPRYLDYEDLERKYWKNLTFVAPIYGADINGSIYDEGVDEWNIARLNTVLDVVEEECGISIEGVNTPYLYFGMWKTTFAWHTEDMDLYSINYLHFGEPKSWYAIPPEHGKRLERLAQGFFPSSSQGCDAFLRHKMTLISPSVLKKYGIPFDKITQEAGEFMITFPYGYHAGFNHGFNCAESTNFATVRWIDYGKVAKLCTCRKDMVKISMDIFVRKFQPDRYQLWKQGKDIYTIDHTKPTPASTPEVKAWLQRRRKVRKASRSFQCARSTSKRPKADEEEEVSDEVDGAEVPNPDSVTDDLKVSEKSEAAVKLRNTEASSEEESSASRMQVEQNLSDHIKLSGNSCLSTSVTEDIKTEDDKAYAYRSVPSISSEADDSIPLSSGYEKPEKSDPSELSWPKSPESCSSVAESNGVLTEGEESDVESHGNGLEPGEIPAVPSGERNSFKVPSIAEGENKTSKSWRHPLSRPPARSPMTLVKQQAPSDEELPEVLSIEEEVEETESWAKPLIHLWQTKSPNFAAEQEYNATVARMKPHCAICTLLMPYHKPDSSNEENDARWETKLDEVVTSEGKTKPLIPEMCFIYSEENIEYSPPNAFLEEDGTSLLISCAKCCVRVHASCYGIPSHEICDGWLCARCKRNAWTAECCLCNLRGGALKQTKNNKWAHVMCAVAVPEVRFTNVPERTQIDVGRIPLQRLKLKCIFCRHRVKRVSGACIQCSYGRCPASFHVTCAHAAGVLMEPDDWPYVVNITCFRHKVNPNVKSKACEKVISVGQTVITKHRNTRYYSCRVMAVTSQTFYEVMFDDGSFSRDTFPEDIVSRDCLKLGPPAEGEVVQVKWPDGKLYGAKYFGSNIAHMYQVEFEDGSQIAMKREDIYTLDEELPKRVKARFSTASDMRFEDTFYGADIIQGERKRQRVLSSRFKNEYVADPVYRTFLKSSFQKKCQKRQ

[3] = biological target: T3, Lysine-specific demethylase 4A (Homo sapiens, UniProt O75164); assay: Inhibition of H3(1-10)K4me3 peptide binding to thrombin cleavable N-terminal 6His tagged and 13C-IVLM labeled human KDM4A tandem TUDOR domain (897 to 1011 residues) expressed in Escherichia coli BL21(DE3)-T1R by ITC method
T3 sequence (O75164 whole entry): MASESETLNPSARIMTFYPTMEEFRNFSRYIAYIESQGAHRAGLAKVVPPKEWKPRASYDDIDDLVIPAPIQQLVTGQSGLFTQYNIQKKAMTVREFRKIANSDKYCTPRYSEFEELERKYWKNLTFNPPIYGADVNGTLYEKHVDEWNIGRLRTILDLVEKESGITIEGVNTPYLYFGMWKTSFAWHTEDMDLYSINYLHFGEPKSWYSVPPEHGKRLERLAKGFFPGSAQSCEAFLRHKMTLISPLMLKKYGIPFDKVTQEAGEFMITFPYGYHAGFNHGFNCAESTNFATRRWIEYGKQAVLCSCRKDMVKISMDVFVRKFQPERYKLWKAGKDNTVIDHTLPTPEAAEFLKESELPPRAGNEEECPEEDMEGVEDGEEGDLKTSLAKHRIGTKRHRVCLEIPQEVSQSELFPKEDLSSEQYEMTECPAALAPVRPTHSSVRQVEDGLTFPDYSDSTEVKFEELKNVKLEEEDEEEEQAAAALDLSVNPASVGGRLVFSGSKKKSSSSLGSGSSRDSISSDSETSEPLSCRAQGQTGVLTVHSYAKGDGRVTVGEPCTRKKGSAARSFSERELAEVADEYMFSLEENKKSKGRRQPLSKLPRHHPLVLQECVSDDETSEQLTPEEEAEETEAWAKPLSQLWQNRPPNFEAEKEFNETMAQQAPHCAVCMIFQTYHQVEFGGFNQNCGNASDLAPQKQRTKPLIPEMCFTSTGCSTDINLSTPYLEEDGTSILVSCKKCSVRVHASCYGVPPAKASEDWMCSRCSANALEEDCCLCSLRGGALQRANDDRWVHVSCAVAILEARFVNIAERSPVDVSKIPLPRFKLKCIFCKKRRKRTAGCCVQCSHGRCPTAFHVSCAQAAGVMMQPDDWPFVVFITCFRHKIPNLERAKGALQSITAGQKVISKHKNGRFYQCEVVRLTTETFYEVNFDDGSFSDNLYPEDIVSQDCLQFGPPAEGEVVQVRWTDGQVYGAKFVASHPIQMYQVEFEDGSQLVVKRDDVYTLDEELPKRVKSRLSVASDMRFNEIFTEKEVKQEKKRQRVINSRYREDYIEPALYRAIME

Structure (SMILES): CN(C)C[C@H]1C2CCC(c3ccccc3)(C2)[C@H]1O (stereo partly drawn)
- Kd [1]: Not Active
- Kd [2]: 129 µM
- Ki [3]: 170 µM

Reference: ChEMBL document CHEMBL4190382, “Targeting lysine specific demethylase 4A (KDM4A) tandem TUDOR domain - A fragment based approach” (Bioorg Med Chem Lett, 2018)
